For 76 compounds, pest or weed control, logP and chromatographic logP results are on record in patent US7745483B2, “2-Halofuryl-thienyl-3-carboxamides” (Bayer CropScience AG, priority 2004, dated 2010).

For the first series, the system named is Botrytis cinerea. Briefly: Botrytis test (bean)/protective. The class given is in vivo. The note with it: 48 h, protective, application rate 500 g/ha, evaluation 2 days after inoculation, read-out: Efficacy in %. The procedure:
[table] To produce a suitable preparation of active compound, 1 part by weight of active compound was mixed with the stated amounts of solvent and emulsifier, and the concentrate was diluted with water to the desired concentration. To test for protective activity, young plants are sprayed with the preparation of active compound at the stated application rate. After the spray coating has dried on, 2 small pieces of agar colonized by Botrytis cinerea are placed onto each leaf. The inoculated plants are placed in a dark chamber at about 20° C. and 100% relative atmospheric humidity. The size of the infected areas on the leaves is evaluated 2 days after the inoculation. 0% means an efficacy which corresponds to that of the control, whereas an efficacy of 100% means that no infection is observed.
As to `O=C(Nc1ccccc1-c1ccc(Cl)c(Cl)c1)c1ccsc1I` [drawing 242], the pest or weed control at 500 g/ha turned out to be 100%.
`O=C(Nc1ccncc1-c1ccc(Cl)c(Cl)c1)c1ccsc1I` [drawing 228]: the pest or weed control at 500 g/ha stood at 100%.
`O=C(Nc1ccccc1-c1ccc(Br)cc1)c1ccoc1I` [drawing 237]: the pest or weed control at 500 g/ha amounted to 100%.
Same read-out and setting: the figure for `O=C(Nc1ccccc1-c1ccc(Cl)cc1)c1ccoc1I` [drawing 236] is 100%; for `CC(CC(C)(C)C)c1ccccc1NC(=O)c1ccsc1Br` (stereo not shown) [drawing 254] it is 100%.
`CC1CC(C)(C)c2cccc(NC(=O)c3ccsc3I)c21` (stereo not shown) [drawing 249]: the pest or weed control at 500 g/ha was found to be 100%.
On the same count and under the same terms, to `O=C(Nc1ccccc1-c1ccc(Cl)cc1)c1ccsc1I` [drawing 240] belongs 100%; to `O=C(Nc1ccccc1-c1ccc(Cl)c(F)c1)c1ccsc1I` [drawing 243], 100%.
As for `O=C(Nc1ccccc1-c1ccc(Cl)cc1)c1ccsc1Br` [drawing 255], the pest or weed control at 500 g/ha amounted to 100%.
With `O=C(Nc1ccccc1-c1ccc(F)c(Cl)c1)c1ccsc1I` [drawing 258], the pest or weed control at 500 g/ha came out at 99%.
Same read-out and setting: to `CC(CC(C)(C)C)c1ccccc1NC(=O)c1ccsc1I` (stereo not shown) [drawing 225] belongs 100%; to `O=C(Nc1ccc(F)cc1-c1ccc(Cl)c(Cl)c1)c1ccsc1I` [drawing 247], 100%.
Same read-out and setting: the figure for `C[Si](C)(C)CCc1sccc1NC(=O)c1ccsc1I` [drawing 259] is 100%; for `CC(C)CC(C)c1ccccc1NC(=O)c1ccsc1Br` (stereo not shown) [drawing 253] it is 100%; for `O=C(Nc1ccc(F)cc1-c1cccc(Cl)c1F)c1ccsc1I` [drawing 234] it is 100%.
The same measure, in the same setting: the figure for `CC(CC(C)(C)C)c1ccccc1NC(=O)c1ccoc1I` (stereo not shown) [drawing 224] is 100%; for `O=C(Nc1ccccc1-c1ccc(Cl)c(F)c1)c1ccoc1I` [drawing 239] it is 100%; for `CC(C)CC(C)c1ccccc1NC(=O)c1ccoc1I` (stereo not shown) [drawing 223] it is 99%.
Turning to `O=C(Nc1ccccc1-c1ccc(Br)c(Cl)c1)c1ccsc1I` [drawing 231], the pest or weed control at 500 g/ha came to 100%.
On the same count and under the same terms, the figure for `CC(C)CC(C)c1ccccc1NC(=O)c1ccsc1I` (stereo not shown) [drawing 222] is 100%; for `C[Si](C)(C)CCc1ccccc1NC(=O)c1ccsc1I` [drawing 226] it is 100%; for `Cc1ccc(-c2ccccc2NC(=O)c2ccsc2I)cc1F` [drawing 248] it is 100%.
Take `CO/N=C/c1ccc(-c2ccccc2NC(=O)c2ccsc2I)cc1F` [drawing 251]: the pest or weed control at 500 g/ha amounted to 100%.
`O=C(Nc1ccccc1-c1cccc(Cl)c1F)c1ccsc1I` [drawing 233]: the pest or weed control at 500 g/ha was 100%.
The same measure, in the same setting: the figure for `CC(C)CC(C)c1cc(F)ccc1NC(=O)c1ccsc1I` (stereo not shown) [drawing 250] is 100%; for `CC(C)CC(C)c1sccc1NC(=O)c1ccsc1I` (stereo not shown) [drawing 252] it is 100%.
Still for that read-out and setting: to `O=C(Nc1ccccc1-c1ccc(Cl)c(Cl)c1)c1ccsc1Br` [drawing 256] belongs 100%; to `O=C(Nc1ccccc1-c1ccc(Br)cc1Cl)c1ccsc1I` [drawing 229], 100%; to `O=C(Nc1ccccc1-c1ccc(Br)c(F)c1)c1ccsc1I` [drawing 230], 100%.
On the same count and under the same terms, to `CC(C[Si](C)(C)C)c1ccccc1NC(=O)c1ccoc1I` (stereo not shown) [drawing 244] belongs 100%.
Take `O=C(Nc1ccccc1-c1ccc(Br)cc1)c1ccsc1I` [drawing 241]: the pest or weed control at 500 g/ha is 100%.
Consider `CC(C)(C)CCc1cc(F)ccc1NC(=O)c1ccsc1I` [drawing 235], for which the pest or weed control at 500 g/ha stood at 100%.

Tested on in a further series: not listed separately
Briefly: logP determination by HPLC on a reverse-phase column (EEC Directive 79/831 Annex V.A8). The class given is physicochemical. The note with it: pH 2.3, reverse-phase column (C 18), 43° C. As for the experimental part: The logP values given were determined in accordance with EEC Directive 79/831 Annex V.A8 by HPLC (High Performance Liquid Chromatography) on a reverse-phase column (C 18). Temperature: 43° C. Mobile phases for the determination in the acidic range (pH 2.3): 0.1% aqueous phosphoric acid, acetonitrile; linear gradient from 10% acetonitrile to 90% acetonitrile. Calibration was carried out using unbranched alkan-2-ones (having 3 to 16 carbon atoms) with known logP values (determination of logP values by retention times using linear interpolation between two successive alkanones).
Consider `CC(C[Si](C)(C)C)c1ccccc1NC(=O)c1ccoc1I` (stereo not shown) [Example 16], for which the logP worked out at 4.45.
Still for that read-out and setting: the figure for `CC(C)CC(C)c1cc(F)ccc1NC(=O)c1ccsc1I` (stereo not shown) [Example 41] is 4.17.
`C=C(CC(C)(C)C)c1ccccc1NC(=O)c1ccsc1I` [Example 14] yielded a logP of 4.78.
The same measure, in the same setting: to `CC(C)(C)CCc1cc(F)ccc1NC(=O)c1ccsc1Br` [Example 44] belongs 4.30.
`CC(C[Si](C)(C)C)c1cc(F)ccc1NC(=O)c1ccsc1I` (stereo not shown) [Example 36] had a logP of 4.67.
The same measure, in the same setting: the figure for `O=C(Nc1ccccc1-c1cccc(Cl)c1F)c1ccsc1I` [Example 33] is 3.67; for `CC(C)(C)CCc1ccccc1NC(=O)c1ccsc1I` [Example 20] it is 4.17.
Same read-out and setting: to `O=C(Nc1ccccc1-c1ccc(C(F)(F)F)cc1Cl)c1ccsc1I` [Example 19] belongs 4.18.
For the compound `O=C(Nc1ccccc1-c1ccc(Br)c(F)c1)c1ccsc1I` [Example 22], the logP was 3.89.
As to `O=C(Nc1ccccc1-c1ccc(C(F)(F)F)cc1)c1ccsc1I` [Example 26], the logP turned out to be 3.89.
As to `CC(C[Si](C)(C)C)c1ccccc1NC(=O)c1ccsc1I` (stereo not shown) [Example 17], the logP is 4.69.
`O=C(Nc1ccccc1-c1ccc(Br)cc1)c1ccoc1I` [Example 3] registered a logP of 3.72.
Still for that read-out and setting: the figure for `O=C(Nc1ccccc1-c1ccc(Cl)cc1)c1ccoc1I` [Example 11] is 3.62; for `O=C(Nc1ccccc1-c1ccc(Br)cc1Cl)c1ccsc1I` [Example 21] it is 4.28.
Turning to `O=C(Nc1ccccc1-c1ccc(Cl)cc1)c1ccsc1Br` [Example 29], the logP is on record as 3.99.
The compound `CC(C)(C)CCc1sccc1NC(=O)c1ccsc1I` [Example 42] registered a lipophilicity (logP) of 4.44.
In turn, `O=C(Nc1ccccc1-c1ccc(Cl)c(F)c1)c1ccsc1I` [Example 9] displayed a lipophilicity (logP) of 3.82.
As for `O=C(Nc1ccccc1-c1ccc(Cl)c(Cl)c1)c1ccoc1I` [Example 10], the logP is 3.89. This logP and that of the compound before are within 0.2 log units of each other.
Same read-out and setting: to `Cc1ccc(-c2ccccc2NC(=O)c2ccsc2I)cc1F` [Example 25] belongs 3.89; to `O=C(Nc1ccccc1-c1ccc(Br)c(F)c1)c1ccoc1I` [Example 4], 3.58.
Compound `CC(C)(C)CCc1cc(F)ccc1NC(=O)c1ccsc1I` [Example 37] returned a logP of 4.16.
`C=C(CC(C)(C)C)c1ccccc1NC(=O)c1ccoc1I` [Example 15] showed a logP of 4.49.
Still for that read-out and setting: the figure for `CC(C)(C)CCc1ccccc1NC(=O)c1ccsc1Br` [Example 45] is 4.30; for `O=C(Nc1ccc(F)cc1-c1cccc(Cl)c1F)c1ccsc1I` [Example 35] it is 3.69; for `O=C(Nc1ccccc1-c1ccc(F)c(Cl)c1)c1ccsc1I` [Example 38] it is 3.79.
On the same count and under the same terms, to `O=C(Nc1ccccc1-c1cccc(Cl)c1Cl)c1ccsc1I` [Example 23] belongs 4.01.
Same read-out and setting: to `O=C(Nc1ccccc1-c1ccc(Cl)c(F)c1)c1ccsc1Br` [Example 31] belongs 3.91; to `CC(CC(C)(C)C)c1ccccc1NC(=O)c1ccsc1I` (stereo not shown) [Example 6], 4.42; to `O=C(Nc1ccncc1-c1ccc(Cl)c(Cl)c1)c1ccsc1I` [Example 34], 2.20.
For `CC(C)CC(C)c1ccccc1NC(=O)c1ccsc1Br` (stereo not shown) [Example 27], the logP was 4.24.
`CC1CC(C)(C)c2cccc(NC(=O)c3ccsc3I)c21` (stereo not shown) [Example 39]: the log partition coefficient (logP) was determined as 4.09.
The compound `C=C(CC(C)C)c1ccccc1NC(=O)c1ccsc1I` [Example 5] yielded a logP of 4.57.
Same read-out and setting: the figure for `O=C(Nc1ccccc1-c1ccc(Cl)c(Cl)c1)c1ccsc1Br` [Example 30] is 4.25.
The same measure, in the same setting: to `O=C(Nc1ccc(F)cc1-c1ccc(Cl)c(Cl)c1)c1ccsc1I` [Example 24] belongs 4.13.
As for `CC(C)CC(C)c1sccc1NC(=O)c1ccsc1I` (stereo not shown) [Example 43], the log partition coefficient (logP) came out at 4.22.
On the same count and under the same terms, the figure for `CON=Cc1ccc(-c2ccccc2NC(=O)c2ccsc2I)cc1F` [Example 40] is 3.79; for `CC(CC(C)(C)C)c1ccccc1NC(=O)c1ccsc1Br` (stereo not shown) [Example 28] it is 4.51; for `O=C(Nc1ccccc1-c1ccc(Cl)c(Cl)c1)c1ccsc1I` [Example 13] it is 4.11.
The same measure, in the same setting: the figure for `O=C(Nc1ccccc1-c1ccc(Br)c(Cl)c1)c1ccsc1I` [Example 32] is 4.21; for `CC(CC(C)(C)C)c1ccccc1NC(=O)c1ccoc1I` (stereo not shown) [Example 7] it is 4.16.
In turn, `O=C(Nc1ccccc1-c1ccc(Cl)cc1)c1ccsc1I` [Example 8] yielded a logP of 3.93.
Still for that read-out and setting: to `C[Si](C)(C)CCc1ccccc1NC(=O)c1ccsc1I` [Example 18] belongs 4.43.

Staying with this series, now noted: reverse-phase HPLC column (C 18), pH 2.3, reverse-phase column (C 18), 43° C.
The compound `CC(C)CC(C)c1ccccc1NC(=O)c1ccsc1I` (stereo not shown) [Example 1, N-[2-(1,3-dimethylbutyl)phenyl]-2-iodothiophene-3-carboxamide] had a chromatographic logP of 4.14.
`CC(C)CC(C)c1ccccc1NC(=O)c1ccoc1I` (stereo not shown) [Example 2, N-[2-(1,3-dimethylbutyl)phenyl]-2-iodo-3-furamide] returned a chromatographic logP of 3.88.

What is called logP is the decadic logarithm of the partition coefficient of the neutral form, usually between octanol and water. Low values mean a more hydrophilic compound, high ones a more lipophilic compound. As a reminder, the chromatographic logP is lipophilicity estimated from chromatographic retention. Read a low chromatographic logP as a more hydrophilic compound.
